Data reported in patent US20200255492A1, “LEPTIN PEPTIDES AND THEIR USE FOR TREATING NEUROLOGICAL DISORDERS” (UNIVERSITY OF DUNDEE, priority 2017, published 2020).

Assays:
[1] = system: p-Tau in hippocampal neurons; experiment: Immunocytochemistry of phosphorylated tau and p-tau/PSD-95 co-localization; type: cell-based, Sprague-Dawley rats; conditions: for % co-localization of p-Tau and PSD-95 in Aβ1-42-treated neurons / p-Tau levels in Aβ1-42-treated neurons: Aβ1-42 1 μM plus leptin 10 nM or leptin(116-130)
Procedure: Hippocampal cultures were prepared as previously (Moult et al, 2010). Neonatal Sprague-Dawley rats (1-3 d old) were […] killed by cervical dislocation in accordance with the UK Animals (Scientific Procedures Act) 1986 legislation. Hippocampi were removed, and after washing in HEPES-buffered saline comprising (mM) 135 NaCl; 5 KCl; 1 CaCl2; 1 MgCl2; 10 HEPES; and 25 D-glucose at […], were treated with papain (1.5 mg ml21; Sigma-Aldrich) for 20 min at 37° C. Dissociated cells were plated onto sterile dishes (35 mm diameter; Greiner Bio-One, Kremsmun-ster, Austria) treated with poly-D-lysine (20 μg ml^−1; 1-2 h). Cultures were maintained in serum replacement medium (SR2; Sigma-Aldrich) in a humidified atmosphere of 5% CO2 and […] at 37° C. for up to 2 wk.
Phosphorylated tau was labelled with primary antibody rabbit anti-tau (Ab-396) polyclonal antibody (1:500, Gen Script) corresponding to phosphorylation site of serine 396 (Y-K-S^P-P-V). To visualise p-tau labelling, neurons were then incubated for 30 min with Alexa fluor555 donkey anti-rabbit IgG secondary antibody (1:250, Thermo Fisher Scientific). For synaptic localisation of p-tau, a secondary primary antibody was then added to compare p-tau localization relative to the synaptic marker, PSD95 (mouse anti-PSD-95, 1:500, Thermo Fisher Scientific) for 30 min. PSD-95 labelling was visualized by incubating with a goat anti-mouse Alexa Fluor […] antibody (1:500; Thermo Fisher Scientific) for 30 min.
A Zeiss LSM510 confocal microscope was used for image acquisition and analysis. Images were obtained using a 10-s scan speed in single tracking mode or multi-tracking mode for dual labelling experiments. The intensity of immunostaining was measured off-line using Lasersharp software (Zeiss Lasersharp), whereby analysis lines of 50 μm length were drawn along randomly selected dendritic regions. All data were obtained from at least three different cultures from different animals. Imaging conditions including illumination intensity and photomultiplier gains were kept constant between treatments for each experiment. In addition, data were normalised relative to the mean fluorescence intensity obtained from control neurons. For synaptic co-localisation experiments, tau and PSD-95 positive immunostaining were compared. The number of tau-positive sites that co-localized with PSD-95 positive sites were counted and expressed as a percentage of total positive sites (peaks of intensity).

[2] = system: GluA1 surface expression in cultured hippocampal neurons; experiment: Surface labelling of AMPA receptor subunit GluA1 (immunocytochemistry); type: cell-based, Sprague Dawley rats; conditions: for surface GluA1 expression: 50 nM, 15 min; for GluA1 staining in the presence of bpV: bpV plus leptin or leptin (116-130); for GluA1 surface expression in the presence of Aβ1-42: leptin peptide 10 nM plus Aβ1-42; for GluA1 surface expression, low concentration alone: 10 nM
Procedure: Hippocampal cultures were prepared from neonatal Sprague Dawley rats as before (O'Malley et al. 2007). Briefly, neonatal Sprague Dawley rats (1-3 days old) were killed by cervical dislocation in accordance with Schedule 1 of the United Kingdom Government Animals (Scientific Procedures) Act, 1986 and the hippocampi removed. After washing in HEPES buffered saline (HBS) comprising (mM): NaCl 135; KCl 5; CaCl2 1; MgCl2 1; HEPES 10; D-glucose 25 at pH 7.4; cells were treated with protease Type X and Type XIV (0.5 mg/ml; Sigma) for 25 min at room temperature. Dissociated cells were plated onto sterile dishes (Falcon 3001) treated with poly-1-lysine (20 μg/ml; 1-2 h) and maintained in MEM with serum replacement-2 (Sigma) in a humidified atmosphere of 5% CO2 and […] at 37° C. for up to 3 weeks.
To monitor GluA1 surface expression, immunocytochemistry was performed on hippocampal cultures (7-14 DIV) as before (Moult et al. 2010). Neurons were treated with agents for 20 min at room temperature (20-22° C.) before incubation with an antibody against an N-terminal region of GluA1 (sheep anti-GluR1; in house antibody against synthetic peptide (RTSDSRDHTRVDWKR) corresponding to 253-267 residues of GluR1; 1:100; Moult et al. 2010) at 4° C. Neurons were then fixed with 4% paraformaldehyde (5 min) before adding an appropriate fluorescently labelled secondary.
Trafficking of AMPA receptors to and away from synapses is crucial for various forms of activity-dependent synaptic plasticity (Collingridge et al. 2004). Our studies indicate that leptin regulates AMPA receptor trafficking as leptin promotes trafficking of GluA1 to hippocampal synapses (Moult et al. 2010). Moreover the ability of leptin to induce LTP in adult hippocampus requires the delivery of GluA1 to synapses by leptin (Moult et al. 2010). Thus, to assess if the leptin fragments also influence AMPA receptor trafficking processes, the surface expression of GluA1 was assayed in cultured hippocampal neurons (Moult et al. 2010). In agreement with previous studies, application of leptin (50 nM; 15 min) increased surface GluA1 expression to 184±7%; (n=36; P<0.001; FIG. 2C,D) compared with control hippocampal neurons. Similarly GluA1 surface expression was elevated (to 160±6% of control; n=36; P<0.001) after exposure to 50 nM leptin (116-130; FIG. 2C,D), whereas GluA1 surface expression (98±4% of control; n=36; P>0.05) was not altered after treatment with 50 nM leptin (22-56).

[3] = system: GluA1 surface expression in cultured hippocampal neurons; experiment: as above; type: cell-based, Sprague Dawley rats; conditions: for GluA1 surface expression, hexamer study: 10 nM, 15 min; for GluA1 surface expression, agent alone (PTEN study): bpV 50 nM, 30 min
[4] = system: SH-SY5Y neuronal cultures; experiment: Thioflavin S staining of amyloid after seeding with Aβ1-42; type: cell-based, human; conditions: 96 hours after seeding with 1 μM Aβ1-42; leptin116-130 1 nM
Procedure: The human neuroblastoma cell line, SH-SY5Y (ECACC, UK) was maintained in Dulbecco's Modified Eagle Medium supplemented with glucose ([…]) and 10% (v/v) cosmic calf serum (Fisher Scientific, UK) at 37° C. in a humidified atmosphere of 5% CO2, 95% air and allowed to reach 70-80% confluence before seeding. Cells (passage 10-18) were plated at 2×10^5 cells on 13 mm borosilicate class coverslips or at 10 000 cells per well in 96 well tissue culture plates (Nunc, VWR, UK) prior to treatment. Reagents used were (from Sigma UK unless stated) 1 nM human leptin, leptin (116-121), leptin (117-122) and leptin (117-125); 0.0001-1 nm murine leptin fragments leptin (116-121), leptin (117-122) and leptin (116-130); 100 μM 6-hydroxydopamine; 10 μM CuCl2; […]
After 96 hours, cultures were fixed for 15 minutes in neutral buffered formalin, washed in phosphate buffered saline and stained with 0.05% Thioflavin S for 10 minutes prior to washing in phosphate buffered saline and mounting for visualisation on a fluorescent microscope. Relative fluorescent intensity per cell was determined using post hoc image analysis with Fiji software. Quantitative data is presented as the mean fluorescence per cell relative to control untreated cells.

Substance | GluA1 surface expression, hexamer study [3] | thioflavin S fluorescent signal per cell (amyloid accumulation) [4] | GluA1 surface expression, agent alone (PTEN study) [3] | % co-localization of p-Tau and PSD-95 in Aβ1-42-treated neurons [1] | p-Tau levels in Aβ1-42-treated neurons [1] | surface GluA1 expression [2] | GluA1 staining in the presence of bpV [2] | GluA1 surface expression in the presence of Aβ1-42 [2] | GluA1 surface expression, low concentration alone [2] | also measured
Aβ1-42: amyloid beta 1-42, toxin used in the AD models [reference compound] |  |  |  |  |  |  |  |  |  | p-Tau staining, Aβ1-42 alone ([1]; 1 μM): increases phosphorylation of tau; synaptic levels of p-Tau (p-Tau/PSD-95), Aβ1-42 alone ([1]; 1 μM): synaptic levels of p-Tau are increased; GluA1 surface expression, Aβ1-42 alone ([2]; 500 nM, 20 min, control Aβ42-1-treated neurons): 70±2 % of control
CSLPQT (listed as Mus musculus) [leptin (117-122)] | 167±10 % of control | prevent the accumulation of amyloid beta |  |  |  |  |  |  |  | 
SCSLPQ (listed as Mus musculus) [leptin (116-121)] | 146±9 % of control | prevent the accumulation of amyloid beta |  |  |  |  |  |  |  | 
SCSLPQTSGLQKPES (listed as Mus musculus) [leptin (116-130)] | increased GluA1 surface labelling | amyloid propagation following seeding is greatly reduced | 167±10 % of control | prevents Aβ1-42-dependent phosphorylation of tau and it trafficking to synapses | prevents Aβ1-42-dependent phosphorylation of tau | 160±6 % of control | 148±8.1 % of control | 97±4 % of control |  | 
leptin (22-56): leptin fragment amino acids 22-56 (Bachem), comparison fragment (VPIQKVQDDTKTLIKTIVTRINDISHTQSVSSKQK; UniProt P41159 22-56, looked up, fragment) [reference compound] |  |  |  |  |  | 98±4 % of control |  | 51±2 % of control | no significant effect on GluA1 trafficking per se | 
leptin: the metabolic hormone leptin, whole (full length) leptin molecule; human leptin from Sigma in SH-SY5Y work |  |  | 140±7.2 % of control | prevents Aβ1-42-driven tau phosphorylation and its targeting to synapses | prevents Aβ1-42-driven tau phosphorylation | 184±7 % of control | 131±6.6 % of control | 101±4 % of control | 113±7 % of control | 
